Source: the supplement of paper PMC10307832

Legend:
Assay in all cases: relative viability (nuclei count vs DMSO), 5 days (fraction); higher = more cells survive
Bortezomib + Pictilisib = compound: CC(C)C[C@H](NC(=O)[C@H](Cc1ccccc1)NC(=O)c1cnccn1)B(O)O [Bortezomib] + CS(=O)(=O)N1CCN(Cc2cc3nc(-c4cccc5[nH]ncc45)nc(N4CCOCC4)c3s2)CC1 [Pictilisib] (partner 1 µM)
Method in brief: (§1)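 A single step with final 0.05% Triton X-100, 1% formaldehyde and 1 ug/ml Hoechst fixed the cells and stained nuclei 5 days after treatment. Lung cancer cell lines in 1536-well plates had been treated by pin tool the day after seeding with one drug alone or a fixed anchor-drug dose plus five library-drug doses (not always all listed) in √10 steps, and nuclei were counted on 4× images. Relative viability is the ratio of nuclei in treated wells to nuclei in vehicle wells, taken as the median of duplicate plates.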

Obatoclax + Phenformin = compound: COC1=CC(c2cc3ccccc3[nH]2)=N/C1=C\c1[nH]c(C)cc1C [Obatoclax] + N=C(N)NC(=N)NCCc1ccccc1 [Phenformin] (partner 250 µM)
Method in brief: as §1

[1] = compound: CC1=CC(=NN1)NC2=CC(=NC(=N2)/C=C/C3=CC=CC=C3)N4CCN(CC4)C + CC(=O)Nc1cccc(-n2c(=O)n(C3CC3)c(=O)c3c(Nc4ccc(I)cc4F)n(C)c(=O)c(C)c32)c1 [Trametinib] (partner 0.02 µM)
Method in brief: as §1

[2] = compound: CC1=CC(=NN1)NC2=CC(=NC(=N2)/C=C/C3=CC=CC=C3)N4CCN(CC4)C + CS(=O)(=O)N1CCN(Cc2cc3nc(-c4cccc5[nH]ncc45)nc(N4CCOCC4)c3s2)CC1 [Pictilisib] (partner 1 µM)
Method in brief: as §1

| Cell Line | relative viability (Bortezomib + Pictilisib; first compound 0.0002 µM) | relative viability (Bortezomib + Pictilisib; first compound 0.000632 µM) | relative viability (Bortezomib + Pictilisib; first compound 0.002 µM) | relative viability (Bortezomib + Pictilisib; first compound 0.006325 µM) | relative viability (Bortezomib + Pictilisib; first compound 0.02 µM) | relative viability (Obatoclax + Phenformin; first compound 0.01 µM) | relative viability (Obatoclax + Phenformin; first compound 0.03162 µM) | relative viability (Obatoclax + Phenformin; first compound 0.1 µM) | relative viability (Obatoclax + Phenformin; first compound 0.3162 µM) | relative viability (Obatoclax + Phenformin; first compound 1 µM) | relative viability ([1]; first compound 0.08 µM) | relative viability ([1]; first compound 0.253 µM) | relative viability ([1]; first compound 0.8 µM) | relative viability ([1]; first compound 2.53 µM) | relative viability ([1]; first compound 8 µM) | relative viability ([2]; first compound 0.08 µM) | relative viability ([2]; first compound 0.253 µM) | relative viability ([2]; first compound 0.8 µM) | relative viability ([2]; first compound 2.53 µM) | relative viability ([2]; first compound 8 µM) |
| --- | --- | --- | --- | --- | --- | --- | --- | --- | --- | --- | --- | --- | --- | --- | --- | --- | --- | --- | --- | --- |
| NCI-H3122 | 0.547 | 0.654 | 0.688 | 0.62 | 0.167 | 0.385 | 0.404 | 0.317 | 0.386 | 0.351 | 0.201 | 0.167 | 0.293 | 0.334 | 0.257 | 0.588 | 0.345 | 0.659 | 0.428 | 0.291 |
| NCI-H1651 | 0.406 | 0.532 | 0.591 | 0.0909 | 0.0929 | 0.384 | 0.324 | 0.386 | 0.252 | 0.184 | 0.801 | 0.83 | 0.832 | 0.758 | 0.395 | 0.656 | 0.622 | 0.583 | 0.201 | 0.0876 |
| NCI-H441 | 0.483 | 0.315 | 0.35 | 0.0918 | 0.102 | 0.664 | 0.79 | 0.771 | 0.614 | 0.475 | 0.434 | 0.426 | 0.42 | 0.141 | 0.0993 | 0.463 | 0.554 | 0.265 | 0.172 | 0.0803 |
| NCI-H2126 | 0.462 | 0.497 | 0.535 | 0.465 | 0.483 | 0.544 | 0.517 | 0.504 | 0.526 | 0.454 | 0.57 | 0.534 | 0.555 | 0.516 | 0.346 | 0.499 | 0.461 | 0.522 | 0.482 | 0.338 |
| RERF-LC-KJ | 0.573 | 0.528 | 0.523 | 0.171 | 0.203 | 0.37 | 0.441 | 0.459 | 0.45 | 0.434 | 0.905 | 0.956 | 0.928 | 0.605 | 0.295 | 0.593 | 0.519 | 0.495 | 0.27 | 0.168 |
| NCI-H1666 | 0.451 | 0.518 | 0.41 | 0.198 | 0.168 | 0.576 | 0.542 | 0.571 | 0.494 | 0.421 | 0.834 | 0.761 | 0.875 | 0.854 | 0.563 | 0.494 | 0.389 | 0.358 | 0.325 | 0.176 |
| PC-14 | 0.685 | 0.726 | 0.632 | 0.0319 | 0.0362 | 0.551 | 0.612 | 0.308 | 0.425 | 0.281 | 0.85 | 0.805 | 0.835 | 0.0586 | 0.038 | 0.651 | 0.635 | 0.56 | 0.199 | 0.0209 |
| NCI-H1915 | 0.808 | 0.941 | 1.14 | 0.685 | 0.144 | 0.361 | 0.362 | 0.337 | 0.363 | 0.343 | 0.299 | 0.181 | 0.285 | 0.21 | 0.106 | 0.948 | 0.674 | 0.885 | 0.571 | 0.289 |
| NCI-H661 | 0.355 | 0.328 | 0.435 | 0.335 | 0.225 | 0.284 | 0.256 | 0.262 | 0.263 | 0.234 | 0.593 | 0.478 | 0.628 | 0.256 | 0.242 | – | 0.408 | 0.346 | 0.259 | 0.205 |
| NCI-H2170 | 0.29 | 0.238 | 0.329 | 0.294 | 0.202 | 0.362 | 0.414 | 0.396 | 0.419 | 0.437 | 0.932 | 0.916 | 0.91 | 0.671 | 0.355 | 0.283 | 0.301 | 0.257 | 0.166 | 0.136 |
| HCC-78 | 0.183 | 0.23 | 0.207 | 0.21 | 0.193 | 0.8 | 0.634 | 0.868 | 0.642 | 0.67 | 0.763 | 0.605 | 0.877 | 0.647 | 0.324 | 0.219 | 0.216 | 0.214 | 0.202 | 0.108 |
| PC-3 [JPC-3] | 0.795 | 0.762 | 0.804 | 0.281 | 0.26 | 0.477 | 0.486 | 0.511 | 0.473 | 0.489 | 0.726 | 0.744 | 0.701 | 0.706 | 0.417 | 0.763 | 0.721 | 0.706 | 0.648 | 0.579 |
| LCLC-103H | 0.529 | 0.509 | 0.549 | 0.511 | 0.383 | 0.317 | 0.28 | 0.327 | 0.321 | 0.34 | 0.667 | 0.641 | 0.677 | 0.651 | 0.528 | 0.623 | 0.676 | 0.58 | 0.5 | 0.347 |
| EKVX | 0.429 | 0.426 | 0.463 | 0.33 | 0.0746 | 0.257 | 0.218 | 0.141 | 0.232 | 0.231 | 0.387 | 0.368 | 0.394 | 0.352 | 0.137 | 0.438 | 0.478 | 0.488 | 0.31 | 0.115 |
| NCI-H460 | 0.334 | 0.376 | 0.435 | 0.36 | 0.346 | 0.448 | 0.53 | 0.441 | 0.25 | 0.112 | 0.171 | 0.0318 | 0.129 | 0.0109 | 0.0042 | 0.32 | 0.427 | 0.383 | 0.221 | 0.036 |
| NCI-H1793 | 0.282 | 0.305 | 0.297 | 0.269 | 0.18 | 0.404 | 0.32 | 0.377 | 0.345 | 0.332 | 0.405 | 0.402 | 0.356 | 0.167 | 0.119 | 0.229 | 0.235 | 0.306 | 0.293 | 0.116 |
